From patent US20130225669A1 (priority 2012, published 2013)
Several values for one entry are separate records, joined by “and”; a condition that tells them apart may be missing. Equal values may be shown once. Entries after “also recorded” stand apart in the source; their conditions may differ. Read-outs that look alike come from different tables or passages of the source.

How the values were obtained:
fibroblasts [1] = conditions: cited from earlier work
3T3 fibroblasts = conditions: in vitro; cited from earlier work
[2] = test system: bovine nucleus pulposus cells; conditions: cells entrapped in chitosan gels crosslinked with 5% genipin; cited from earlier work
[3] = test system: Bacillus subtilis var. niger spores; type: cell-based; conditions: for spore strips sterilized: room temperature (Example 6)
Experimental: The sterilization potential of genipin was measured by treating B. subtilis mini spore strips with 1.2×10^6 bacterial spores (ATCC 9372, North American Science Associates, Inc., Northwood, Ohio) with 0.5 mL of sterile 1:1 dimethyl sulfoxide (Avantor Performance Materials, Inc., Center Valley, Pa.): phosphate-buffered saline (Fisher Scientific, Pittsburgh, Pa.) (DMSO: PBS, v/v); 2%, 6%, and 10% genipin in 1:1 DMSO:PBS; and 10% formalin (Fisher Scientific, Pittsburgh, Pa.) (N=4 per group). Genipin treatments corresponded to 8.3 mg, 25 mg, and 42 mg genipin per 10^6 spores for the 2%, 6%, and 10% groups, respectively. Treatment was conducted at room temperature, 20-25° C., for 24 hours and 72 hours. Spore strips were subsequently washed with sterile water and aseptically transferred to Releasat® rapid-readout color changing vials (SGM Biotech, Bozeman, Mont.) which have soybean-casein digest medium with the pH indicator phenol red, designed to change color from orange to yellow in the presence of spore germination and proliferation. Spores were incubated for one week at 37° C.
B. subtilis mini spores strips with 1.2×10^6 spores were treated with 0.5 mL of sterile PBS and 1:1 DMSO:PBS without genipin; 0.03%, 0.32%, and 0.63% genipin in 1:1 DMSO: PBS; 0.63% genipin in PBS; and 10% formalin for 72 hours at room temperature (N=4 per group). Genipin treatments corresponded to 0.13 mg, 1.3 mg, and 2.6 mg genipin per 10^6 spores for the 0.03%, 0.32%, and 0.63% groups, respectively. Spore strips were subsequently washed with sterile water, aseptically transferred to Releasat® vials, and incubated for one week at 37° C.
B. subtilis mini spores strips with 1.2×10^6 spores were treated with 0.5 mL of sterile 1:1 DMSO:PBS without genipin; 0.63%, 2%, 6%, and 10% genipin in 1:1 DMSO:PBS; and 10% formalin for 72 hours at room temperature (N=4 per group). Spore strips were subsequently washed with sterile water, aseptically transferred to Releasat® vials, and incubated for one week at 37° C.
A priori power analysis was performed with G*Power (G*Power 3.1.3, Kiel, Germany). To detect at least a one-log difference in population assays, comparing groups at an α=0.05 and power >0.999 required N=3 per group. One-tailed Mann-Whitney U tests were performed for comparing population assay groups. Chi squared tests and binomial exact confidence intervals were performed comparing spore viability against expected spore counts for dichotomous (sterile, non-sterile) growth in medium based on the manufacturer's certificate of analysis (COA), and the population assays (PA, for B. subtilis only), using Minitab 16 (Minitab, Inc., State College, Pa.). Statistical significance was set at p≦0.05.

[4] = test system: Chinese hamster ovary (CHO-K1) cells; conditions: in vitro; cited from earlier work
cells in culture = conditions: 2200 μMolar sterile genipin; cited from earlier work
[5] = test system: Bacillus subtilis var. niger spores; type: cell-based; conditions: for colonies at the 1-log reduction level: 72 hours, room temperature
Experimental: B. subtilis mini spores strips with 1.2×10^6 spores were treated with 0.5 mL of sterile PBS; 1:1 DMSO:PBS without genipin; 0.63%, 2%, 6%, and 10% genipin in 1:1 DMSO:PBS; and 10% formalin for 72 hours at room temperature (N=4 per group). Spore strips were then washed with sterile water and then aseptically macerated, serially diluted, and plated onto petri dishes with soybean-casein digest agar (Mo Bio Laboratories, Carlsbad, Calif.). Spores were incubated for 48 hours at 32.5° C. after which time colony counts were performed.

[6] = test system: Geobacillus stearothermophilus spores; assay: Spore strip sterilization, soybean-casein medium; type: cell-based
Experimental: (§1) Spore strips of B. pumilus (ATCC 27142) with 1.9×10^6 spores (SGM Biotech, Bozeman, Mont.) and G. stearothermophilus (ATCC 7953) with 1.9×10^6 spores (SGM Biotech, Bozeman, Mont.) were treated with doses of genipin equivalent to those that sterilized of B. subtilis. B. pumilus conventional spore strips were treated with 1.75 mL of solution and G stearothermophilus mini spore strips were treated with 0.5 mL of solution. Spore strips were treated with 1:1 DMSO:PBS; 2.6 mg, 8.3 mg, 25 mg, and […] genipin per 10^6 spores in 1:1 DMSO:PBS; and 10% formalin (N=4). After treatment for 72 hours spore strips were washed and transferred to soybean-casein medium (Becton Dickinson, Franklin Lanes, N.J.). B. pumilus was incubated at 32.5° C. and G stearothermophilus was incubated at 57.5° C.

B. pumilus spores = assay: Spore strip sterilization, soybean-casein medium; type: cell-based; conditions: 72 hours
Experimental: as §1

fibroblasts [7] = conditions: cells directly exposed to genipin solution; cited from earlier work
B. subtilis spores = assay: Scanning electron microscopy of genipin-treated spores; type: cell-based; conditions: 10% and 0.63% genipin in 1:1 DMSO:PBS, 72 hours, room temperature
Experimental: The morphology of B. subtilis was evaluated using scanning electron microscopy. Spore strips were either untreated, treated with 0.5 mL of sterile 1:1 DMSO:PBS without genipin, or 0.5 mL of sterile 0.63% or 10% genipin in 1:1 DMSO:PBS for 72 hours at room temperature. After treatment, spore strips were washed with sterile water and dehydrated with increasing concentrations of ethanol (70%, 80%, 90%, and 100%) and subjected to critical point drying. The spore strips were mounted onto a stage, sputter coated with gold, and visualized under a scanning electron microscopy (Hitachi S-4500 Cold Field Emission SEM, Hitachi, Ltd., Tokyo, Japan).

[8] = cited from earlier work
[9] = test system: Bacillus subtilis var. niger spores; type: cell-based
osteoblasts = conditions: cells directly exposed to genipin solution; cited from earlier work
[10] = cited from earlier work; remark: listed apart in the source
[11] = test system: over 40 bacterial (non-spore forms) and fungal species; conditions: most 20-40%; cited from earlier work
[12] = 0.03% genipin in 1:1 DMSO:PBS, 72 hours, room temperature
[13] = 0.32% genipin in 1:1 DMSO:PBS, 72 hours, room temperature

Structure (SMILES): COC(=O)C1=CO[C@@H](O)C2C(CO)=CC[C@H]12 (stereo in doubt) [genipin, methyl (1R,2R,6S)-2-hydroxy-9-(hydroxymethyl)-3-oxabicyclo [4.3.0]nona-4,8-diene-5-carboxylate]
- fibroblast proliferation on treated tissue (fibroblasts [1]; bovine pericardia treated with 0.625% genipin in PBS, within three days): substantial fibroblast proliferation
- cytotoxicity compared with glutaraldehyde (3T3 fibroblasts): substantially less cytotoxic than glutaraldehyde
- cell viability [2]: up to 87%
- log reduction in spore viability [3, 12]: 5- to 6 log and > 5 log
- spore strips sterile [3, 12]: two of four
- log reduction in spore viability [3, 13]: 5- to 6 log and > 5 log
- spore strips sterile [3, 13]: one of four
- spore strips sterile ([3]; 0.63% genipin in 1:1 DMSO:PBS, 72 hours, room temperature (Example 7)): Three of four
- spore strip viability/sterility ([3]; 0.63% genipin in PBS, 72 hours, room temperature): demonstrated viability
- log reduction in spore viability ([3]; 0.63% genipin, all doses of DMSO (0-50%), 37° C.): ≥ 6 log
- spore strip viability/sterility ([3]; 0.63%, 2%, 6%, 10% genipin in 1:1 DMSO:PBS, 72 hours, room temperature (confirmation, Example 8)): sterilized the spore strips
- log reduction in spore viability ([3]; 0.63%-10% genipin in 1:1 DMSO:PBS, 72 hours, room temperature (confirmatory experiment)): at least 6 log
- genipin dose necessary for eradication of B. subtilis ([3]; 1:1 DMSO:PBS, 72 hours, room temperature): at least 2.6 mg/10^6 spores
- spore strips sterilized ([3]; 2% genipin in 1:1 DMSO:PBS, 72 hours): 3 of 4
- spore strip viability/sterility ([3]; 2%-10% genipin in 1:1 DMSO:PBS, 24 hours, room temperature): demonstrated bacterial viability; also recorded: unable to sterilize any spore strips; also recorded: yellow (growth)
- spore strips sterilized ([3]; 6% genipin in 1:1 DMSO:PBS, 72 hours): 3 of 4
- spore strips sterilized ([3]; 10% genipin in 1:1 DMSO:PBS, 72 hours): all
- clastogenic response [4]: does not cause clastogenic response
- cell death (cells in culture): complete cell death
- colonies at the 1-log reduction level ([5]; 0.63% genipin in 1:1 DMSO:PBS): no colonies
- log reduction in B. subtilis viability ([5]; 0.63% genipin in PBS, one week treatment (unpublished pilot data)): 2 log
- colonies at the 1-log reduction level ([5]; 2% genipin in 1:1 DMSO:PBS): no colonies
- colonies at the 1-log reduction level ([5]; 6% genipin in 1:1 DMSO:PBS): no colonies
- colonies at the 1-log reduction level ([5]; 10% genipin in 1:1 DMSO:PBS): three 10% genipin-treated spore strips yielded no colonies
- spore strips sterilized ([6]; 2.6 mg genipin/10^6 spores in 1:1 DMSO:PBS, 72 hours): Three of 4
- log reduction in spore viability ([6]; 2.6 mg-42 mg genipin/10^6 spores in 1:1 DMSO:PBS, 72 hours, room temperature): at least 6 log
- spore strips sterilized ([6]; 8.3 mg genipin/10^6 spores in 1:1 DMSO:PBS, 72 hours): 4/4
- spore strips sterilized ([6]; 25 mg genipin/10^6 spores in 1:1 DMSO:PBS, 72 hours): Three of 4
- spore strips sterilized ([6]; 42 mg genipin/10^6 spores in 1:1 DMSO:PBS, 72 hours): 4/4
- log reduction in spore viability (B. pumilus spores; 2.6 mg-42 mg genipin/10^6 spores in 1:1 DMSO:PBS, room temperature): at least 6 log
- spore strips sterilized (B. pumilus spores; all genipin doses (2.6-42 mg per 10^6 spores) in 1:1 DMSO:PBS): 4/4
- concentration sufficient for cytotoxicity (fibroblasts [7]): 80-100 ppm
- spore morphology versus untreated spore strips (B. subtilis spores): no appreciable morphological differences
- relative solubility in solvents ([8]; organic solvents versus PBS): more soluble in ethanol than in PBS; also recorded: substantially more soluble in organic solvents
- solubility in PBS ([8]; phosphate-buffered saline): approximately 1%
- sterile vials ([9]; 0.63% genipin in 50% DMSO/50% PBS, room temperature (Example 12)): 2/5
- log reduction in spore viability ([9]; 0.63% genipin in PBS, 37° C.): ≥ 6 log
- sterile vials ([9]; 0.63% genipin, all doses of DMSO (0-50%) in PBS, 37° C.): 5/5
- concentration sufficient for cytotoxicity (osteoblasts): 80-100 ppm

Structure (SMILES): C[S+](C)[O-] [DMSO, dimethyl sulfoxide]
- toxicity rate ([10]; DMSO washed off or less than 10% DMSO): 0.3%
- toxicity incidence ([10]; stem cells cryopreserved with 10% DMSO, review of 34,000 transplants): 1.5%
- microbicidal concentration [11]: 8 to 40%

Structure (SMILES): C=O [formalin, reference compound]
- spore strip viability/sterility ([3]; 10% formalin, 24 hours, room temperature): orange (sterile)
- colonies at the 1-log reduction level ([5]; 10% formalin): no colonies
- spore strip viability/sterility ([6]; 10% formalin, 72 hours): presence of spore viability
- spore strips from which G. stearothermophilus grew ([6]; 10% formalin, 72 hours): 100%
- time required to demonstrate viability ([6]; 10% formalin, 72 hours treatment): 2.25 ± 0.50 days
- spore strip viability/sterility ([6]; 10% formalin, 72 hours, listed as 10% formalin): demonstrated viability

Structure (SMILES): O=CCCCC=O [glutaraldehyde, reference compound]
- fibroblast proliferation on treated tissue (fibroblasts [1]; 0.625% glutaraldehyde-treated pericardia, after seven days): no cellular proliferation
